Reference: patent US20230121689A1, “CEPHALOSPORIN ANTIBACTERIAL COMPOUND AND PHARMACEUTICAL APPLICATION THEREOF” (priority 2020, published 2023)
In brackets after ≈: the same amount, converted by molar mass. Read-outs that look alike come from different tables or passages of the source.

Key:
Format in all cases: cell-based
[1] = tested on: Carbapenem-resistant Acinetobacter baumannii (CRAB); experiment: Test Example 1: antibacterial activity test (MIC)
Experimental: (§1) The test compounds were diluted in a gradient and used for an MIC assay on the test strains. The test compounds at an initial assay concentration of 32 μg/mL were diluted in a 2-fold gradient (11 concentration points in total), and two duplicate wells were set for each concentration. Additional wells without drug dosing were set as growth controls. The minimum inhibitory concentration (MIC) assay was performed with reference to the Clinical and Laboratory Standards Institute (CLSI) guidelines.
(§2) After the frozen strains were subcultured, a single colony was picked and re-suspended in normal saline or sterile water in a tube. The bacterial suspension was vortexed and adjusted to 0.5 McF using a spectrophotometer at the wavelength of 530 nm. The bacterial solution was taken by a pipette, added to a culture medium, diluted and mixed well, and seeded to a bacterial assay plate.
(§3) The 96-well plate was affixed with a disposable sealing film, shaken and mixed well, and visually observed using a plate reader. The minimum concentration of the compounds capable of inhibiting the growth of bacteria was defined as MIC as compared to the growth controls.

[2] = tested on: Carbapenem-resistant Enterobacteriaceae (CRE); experiment: Test Example 1: antibacterial activity test (MIC)
Experimental: as §1, §2, §3

[3] = tested on: Carbapenem-resistant Pseudomonas aeruginosa (CRPA); experiment: Test Example 1: antibacterial activity test (MIC)
Experimental: as §1, §2, §3

[4] = tested on: Carbapenem-resistant Acinetobacter baumannii (CRAB, Acinetobacter baumannii); experiment: Test Example 2: antibacterial activity test (MIC); conditions: ID-CAMHB, read-out: ID-CAMHB, MIC
Experimental: (§4) 1. The test compounds were dissolved in sterile normal saline, vortexed for uniformly mixing, and diluted in a 2-fold dilution with the sterile normal saline (11 concentration points in total). The test concentration range was 32-0.031 μg/mL, and two duplicate wells were set for each concentration. Additional wells without drug dosing were set as growth controls. 2. 4 μL of the diluent was added to 196 μL of the bacterial suspension in a 96-well plate (the bacterial count in the bacterial suspension was 2-8×10^5 colony forming units/mL). 3.
(§5) The minimum inhibitory concentration (MIC) assay was performed with reference to the Clinical and Laboratory Standards Institute (CLSI) guidelines.

[5] = tested on: Carbapenem-resistant Enterobacteriaceae (CRE, Klebsiella pneumoniae); experiment: Test Example 2: antibacterial activity test (MIC); conditions: ID-CAMHB, read-out: ID-CAMHB, MIC
Experimental: as §4, §5

[6] = tested on: Carbapenem-resistant Pseudomonas aeruginosa (CRPA, Pseudomonas aeruginosa); experiment: Test Example 2: antibacterial activity test (MIC); conditions: ID-CAMHB, read-out: ID-CAMHB, MIC
Experimental: as §4, §5

[7] = tested on: Control Strain Pseudomonas aeruginosa ATCC 27853; experiment: Test Example 2: antibacterial activity test (MIC); conditions: ATCC27853, ID-CAMHB, ATCC 27853, read-out: ID-CAMHB, MIC
Experimental: as §4, §5

[8] = tested on: Control strain Escherichia coli ATCC 25922; experiment: Test Example 2: antibacterial activity test (MIC); conditions: ATCC25922, ID-CAMHB, ATCC 25922, read-out: ID-CAMHB, MIC
Experimental: as §4, §5

## CC(C)(O/N=C(\C(=O)N[C@@H]1C(=O)N2C(C(=O)[O-])=C(C[N+]3(CC4(NC(=O)c5ccc(O)c(O)c5Cl)CC4)CCCC3)CS[C@H]12)c1csc(N)n1)C(=O)O [Compound 2]
[1]; CRAB strain No. 100085
  MIC: 0.5 µg/mL (≈ 0.642 µM)
[1]; CRAB strain No. 100333
  MIC: 2 µg/mL (≈ 2.57 µM)
[1]; CRAB strain No. 110440
  MIC: 3 µg/mL (≈ 3.85 µM)
[1]; CRAB strain No. 110477
  MIC: 2 µg/mL (≈ 2.57 µM)
[1]; CRAB strain No. 110517
  MIC: 0.5 µg/mL (≈ 0.642 µM)
[2]; CRE strain No. 100109
  MIC: 1 µg/mL (≈ 1.28 µM)
[2]; CRE strain No. 100186
  MIC: 1.5 µg/mL (≈ 1.93 µM)
[2]; CRE strain No. 110502
  MIC: 6 µg/mL (≈ 7.71 µM)
[2]; CRE strain No. 110525
  MIC: 2 µg/mL (≈ 2.57 µM)
[2]; CRE strain No. 311277
  MIC: 1.5 µg/mL (≈ 1.93 µM)
[3]; CRPA strain No. 100110
  MIC: 0.031 µg/mL (≈ 0.0398 µM)
[3]; CRPA strain No. 110163
  MIC: 0.5 µg/mL (≈ 0.642 µM)
[3]; CRPA strain No. 110224
  MIC: 0.75 µg/mL (≈ 0.964 µM)
[3]; CRPA strain No. 110358
  MIC: 1 µg/mL (≈ 1.28 µM)
[3]; CRPA strain No. 110390
  MIC: 0.5 µg/mL (≈ 0.642 µM)
[4]; FDA-CDC AR-BANK #0036 (strB, OXA-65, OXA-24, strA, sul2)
  MIC: 0.5 µg/mL (≈ 0.642 µM)
[4]; FDA-CDC AR-BANK #0052 (OXA-58, OXA-100, sul2)
  MIC: 0.0625 µg/mL (≈ 0.0803 µM)
[4]; FDA-CDC AR-BANK #0063 (OXA-23, OXA-65, OXA-24, sul2)
  MIC: 16 µg/mL (≈ 20.6 µM)
[4]; FDA-CDC AR-BANK #0070 (OXA-58, OXA-100, sul2)
  MIC: 0.0625 µg/mL (≈ 0.0803 µM)
[4]; FDA-CDC AR-BANK #0101 (strB, OXA-65, OXA-24, strA, sul2)
  MIC: 0.5 µg/mL (≈ 0.642 µM)
[5]; FDA-CDC AR-BANK #0361 (TEM-1; SHV-12; KPC-2)
  MIC: 1 µg/mL (≈ 1.28 µM)
[5]; FDA-CDC AR-BANK #0362 (TEM-1; SHV-11; KPC-2)
  MIC: 0.5 µg/mL (≈ 0.642 µM)
[5]; FDA-CDC AR-BANK #0363 (TEM-1; SHV-12; KPC-2)
  MIC: 0.5 µg/mL (≈ 0.642 µM)
[5]; FDA-CDC AR-BANK #0438 (aph(3′)-Ia, dfrA12, KPC-3, OmpK35, oqxA, oqxB, SHV-11)
  MIC: 1 µg/mL (≈ 1.28 µM)
[5]; FDA-CDC AR-BANK #0453 (KPC-3, OmpK35, oqxA, oqxB, SHV-11, TEM-1B)
  MIC: 2 µg/mL (≈ 2.57 µM)
[6]; FDA-CDC AR-BANK #0439 (aac(6′)-Il, aadA1b, BCR1, IMP-18, OXA-50)
  MIC: 0.5 µg/mL (≈ 0.642 µM)
[6]; FDA-CDC AR-BANK #0441 (KPC-2)
  MIC: 2 µg/mL (≈ 2.57 µM)
[6]; FDA-CDC AR-BANK #0444 (aac(6′)-Il, dfrB5, OXA-4, tet(G), VIM-2)
  MIC: 4 µg/mL (≈ 5.14 µM)
[6]; FDA-CDC AR-BANK #0457 (aadA6, VIM-2)
  MIC: 0.125 µg/mL (≈ 0.161 µM)
[7]
  MIC: 0.0625 µg/mL (≈ 0.0803 µM)
[8]
  MIC: 0.125 µg/mL (≈ 0.161 µM)
